Broadly, the melting point is the temperature of the solid-liquid transition. A word on the EC50: it is the concentration that produces a half-maximal response. Low readings indicate greater potency, high ones weaker potency.

One series has as its target P-gp (Homo sapiens, UniProt P08183). The following applies: their (Boumendjel et al.) experiments; cited from earlier work.
Series [1] has as its target T1, P-gp 170 (Homo sapiens, UniProt P08183).
Series [2] concerns the target T1, P-gp 170. The series is described as follows: in vitro. The following applies: for Amax (maximum accumulation of intracellular vinblastine), fold higher than control: human, 60 min. The source says: (§1) The KB/MDR cells, which overexpress human P-gp 170 protein, were used to evaluate the anti-P-gp 170 activity of drugs. […] The concentration of compound required to achieve 50% maximum accumulation of vinblastine is presented as the EC50 value. The maximum accumulation of intracellular vinblastine caused by the compounds in one hour is expressed as Amax (picomoles/10^6 cells). The cell growth inhibitory activity of compounds is presented as the concentration required to inhibit 50% growth of KB or KB/MDR cell lines (IC50) following three days of compound treatment.
(§2) Vinblastine uptake by the KB/MDR cells. KB/MDR cells,^37 which overexpress human P-gp 170 protein, were seeded into 24-well tissue culture plates in RPMI 1640 medium plus 10% fetal bovine serum for 24 hours without the selecting agent doxorubicin (37 nM). The cells were then treated with [^3H]vinblastine plus synthetic flavones in HBSS for 60 minutes. The cells were washed twice with ice-cold PBS, harvested with 1 N NaOH, neutralized with 1 N HCl. The cell aliquots were transferred to scintillation vials and counted with a […] (Beckman, model LS 5000) after adding 10 mL scintillation fluids (SafeScint, American Bioanalytical Co., Natick, Mass.). Data presented are the mean of three independent experiments.

Another series relates to KB cells. The series can be described thus: Growth inhibitory assay, KB cells. In kind it is cell-based, human. The following applies: 3 days. The protocol:
(§3) The cells were then fixed and stained with methylene blue in 50% MeOH, washed thoroughly with tap water, and dissolved with 0.5 mL 0.5% sarcosyl.^38 The amount of cellular protein, which is proportional to the cell number, is estimated by the absorption (OD595nm). The growth inhibitory assay, which is presented as an IC50 value, represents the concentration of compound required to inhibit 50% of cell growth. The cell doubling time of KB and KB/MDR cells is about 20 to 24 hours. The data presented are the mean of three independent experiments.

The test system of another series is KB/MDR cells. The series is described as follows: Growth inhibitory assay, KB/MDR cells. It is filed as cell-based, human. The conditions noted are these: 3 days. As to the method: as §3
The target of series [3] is P-gp 170 (human P-glycoprotein) (Homo sapiens, UniProt P08183). The series can be described thus: in vitro. The following applies: human.
Text: as §1, §2

The target in series [4] is T1, P-gp 170. The series is described as follows: Inhibitory activity of Scute and its components against P-gp 170 efflux action (previous study).

Where two headings read alike, the source gives them in different places.

T1 sequence (P08183 whole entry): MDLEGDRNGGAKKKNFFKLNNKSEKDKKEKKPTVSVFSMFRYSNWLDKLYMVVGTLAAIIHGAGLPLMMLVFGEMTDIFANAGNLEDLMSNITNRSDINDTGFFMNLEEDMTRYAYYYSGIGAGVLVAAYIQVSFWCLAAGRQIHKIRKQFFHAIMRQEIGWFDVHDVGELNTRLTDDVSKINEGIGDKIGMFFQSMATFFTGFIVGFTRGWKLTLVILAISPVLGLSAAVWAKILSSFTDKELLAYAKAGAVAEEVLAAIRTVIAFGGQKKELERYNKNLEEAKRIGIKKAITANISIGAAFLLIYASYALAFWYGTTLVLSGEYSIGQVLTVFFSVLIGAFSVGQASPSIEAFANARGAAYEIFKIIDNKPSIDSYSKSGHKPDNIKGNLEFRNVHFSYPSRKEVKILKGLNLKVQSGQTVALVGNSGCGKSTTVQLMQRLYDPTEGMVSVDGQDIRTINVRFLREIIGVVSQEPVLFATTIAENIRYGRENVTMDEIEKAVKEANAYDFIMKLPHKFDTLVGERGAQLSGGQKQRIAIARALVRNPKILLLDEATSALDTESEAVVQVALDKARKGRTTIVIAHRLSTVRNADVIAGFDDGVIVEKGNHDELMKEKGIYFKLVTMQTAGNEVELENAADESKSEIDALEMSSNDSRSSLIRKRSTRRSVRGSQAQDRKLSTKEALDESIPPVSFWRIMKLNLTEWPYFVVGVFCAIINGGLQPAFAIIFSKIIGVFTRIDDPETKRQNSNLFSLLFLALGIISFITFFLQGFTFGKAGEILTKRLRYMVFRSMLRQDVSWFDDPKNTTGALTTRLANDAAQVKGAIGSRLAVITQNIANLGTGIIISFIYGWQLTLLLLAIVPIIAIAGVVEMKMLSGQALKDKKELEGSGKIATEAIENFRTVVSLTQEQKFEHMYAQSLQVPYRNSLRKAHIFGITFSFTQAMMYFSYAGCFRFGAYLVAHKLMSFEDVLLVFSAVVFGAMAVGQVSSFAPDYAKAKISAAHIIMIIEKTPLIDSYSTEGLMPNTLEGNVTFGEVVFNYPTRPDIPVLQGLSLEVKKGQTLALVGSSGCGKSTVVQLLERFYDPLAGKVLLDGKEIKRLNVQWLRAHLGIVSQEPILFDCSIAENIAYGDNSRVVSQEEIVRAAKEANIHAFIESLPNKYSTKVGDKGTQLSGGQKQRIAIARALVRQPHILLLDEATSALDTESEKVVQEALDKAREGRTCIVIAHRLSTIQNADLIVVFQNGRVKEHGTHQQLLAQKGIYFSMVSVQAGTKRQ
Sequence of P-gp 170 (human P-glycoprotein) (P08183 whole entry): as above
Sequence of P-gp (P08183 whole entry): as above

Regarding `CCOc1cc2oc(-c3ccccc3)cc(=O)c2c(OC)c1OCC`, the melting point was 126 to 128 °C.

`O=c1cc(-c2ccccc2)oc2cc(OCc3ccccc3)cc(O)c12` [7-benzoxy-5-hydroxyflavone]: the “Amax / drug accumulation as compared to cyclosporin A” value at P-gp was 25%.

Consider `O=c1cc(-c2ccccc2)oc2cc(O)c(O)c(O)c12` [Compound 1, baicalein], for which the “anti-P-gp 170 activity in words” value on P-gp 170 [1] is given as “active component”.

With `CC(=O)Oc1c(O)cc2oc(-c3ccccc3)cc(=O)c2c1O` [Compound 2, 6-Acetoxy-5,7-dihydroxyflavone], the melting point is 205 to 207 °C. At P-gp 170 [2], the “EC50 relative to the parental compound (baicalein)” value is listed as “one-fourth”.

With `CC(=O)Oc1cc2oc(-c3ccccc3)cc(=O)c2c(O)c1OC(C)=O` [Compound 3, 6,7-Diacetoxy-5-hydroxyflavone], the “EC50 relative to the parental compound (baicalein)” value at P-gp 170 [2] (KB/MDR cells) is recorded as “one-fourth”.

`COc1cc2oc(-c3ccccc3)cc(=O)c2c(OC)c1OC(C)=O` [Compound 5, 6-Acetoxy-5,7-dimethoxyflavone] yielded a melting point of 208 to 210 °C.

Consider `COc1cc2oc(-c3ccccc3)cc(=O)c2c(OC)c1OC` [Compound 6, 5,6,7-Trimethoxyflavone], for which the midpoint of the response at P-gp 170 [2], the EC50, lay at 4.6 µM.

Regarding `COc1cc2oc(-c3ccccc3)cc(=O)c2c(O)c1OC` [Compound 8, 5-Hydroxy-6,7-dimethoxyflavone], at P-gp 170 [2], the EC50 turned out to be 5.5 µM.

`CC(=O)Oc1cc2oc(-c3ccccc3)cc(=O)c2c(OCc2ccccc2)c1OC(C)=O` [Compound 9, 6,7-Diacetoxy-5-(benzoxy)flavone] showed a melting point of 175 to 177 °C. Besides, the “anti-P-gp 170 efflux activity (EC50, Amax) in words” value (from here on “anti-P-gp 170 efflux activity”) at P-gp 170 [2] is listed as “low EC50 but higher Amax in comparison with baicalein”.

Consider `CC(=O)Oc1cc2oc(-c3ccccc3)cc(=O)c2c(O)c1OCc1ccccc1` [Compound 10, 7-Acetoxy-6-(benzoxy)-5-hydroxyflavone], for which the “anti-P-gp 170 efflux activity” value at P-gp 170 [2] is given as “low EC50 but higher Amax in comparison with baicalein”.

On to `COc1c2c(cc3oc(-c4ccccc4)cc(=O)c13)OC(c1ccccc1)(c1ccccc1)O2` [Compound 13, 6,7-(Diphenylmethylenedioxy)-5-methoxyflavone], for which the cytotoxicity in words result in the series on KB cells and in the series with KB/MDR cells was “decreased” in each case. Besides, the “anti-P-gp 170 efflux activity” value on P-gp 170 [2] is given as “decreased”.

In turn, `CC(=O)Oc1c(OCc2ccccc2)cc2oc(-c3ccccc3)cc(=O)c2c1OC(C)=O` [Compound 14, 5,6Diacetoxy-7-(benzoxy)flavone] gave a melting point of 174 to 175 °C. In addition, on P-gp 170 [2], the “anti-P-gp 170 efflux activity” value was “low EC50 but higher Amax in comparison with baicalein”.

In the case of `O=c1cc(-c2ccccc2)oc2cc(O)c(OCc3ccccc3)c(O)c12` [Compound 15, 6-(Benzoxy)-5,7-dihydroxyflavone], the “anti-P-gp 170 efflux activity” value at P-gp 170 [2] is recorded as “low EC50 but higher Amax in comparison with baicalein”.

As to `O=c1cc(-c2ccccc2)oc2cc(OCc3ccccc3)c(OCc3ccccc3)c(O)c12` [Compound 16, 6,7-(Dibenzoxy)-5-hydroxy-flavone], the cytotoxicity in words result in the series with KB cells is “decreased and lost”; in the series on KB/MDR cells, “decreased and lost”.

As for `CCCOc1c(O)cc2oc(-c3ccccc3)cc(=O)c2c1O` [Compound 17, 5,7-Dihydroxy-6-propoxyflavone], the melting point was in the range of 162 to 163 °C. Moreover, at P-gp 170 [2], the EC50 was determined as 2 µM and the “Amax (maximum accumulation of intracellular vinblastine), fold higher than control” value (from here on “Amax … fold higher than control”) amounted to 9 fold.

For the compound `CCCOc1cc2oc(-c3ccccc3)cc(=O)c2c(O)c1OCCC` [Compound 18, 5-Hydroxy-6,7-dipropoxyflavone], the response in series [3] was half-maximal at 1.4 µM (EC50 at 60 min). The “Amax … fold higher than control” value on P-gp 170 [2] is reported as 10 fold.

With `CCCOc1c(OC)cc2oc(-c3ccccc3)cc(=O)c2c1O` [Compound 21, 5-Hydroxy-7-methoxy-6-propoxyflavone], on P-gp 170 [2], the EC50 is 1.2 µM and the “Amax … fold higher than control” value amounted to 9 fold.

`CCCOc1cc2oc(-c3ccccc3)cc(=O)c2c(OC)c1OCCC` [Compound 23, 5-Methoxy-6,7-dipropoxyflavone] displayed a concentration for a half-maximal effect (EC50) at P-gp 170 [2] of 0.9 µM.

Consider `CC(=O)Oc1c(OC(C)=O)c(O)c2c(=O)cc(-c3ccccc3)oc2c1Br` [Compound 24, 6,7-Diacetoxy-8-bromo-5-hydroxyflavone], for which the melting point is 244 to 246 °C. The “anti-P-gp 170 efflux activity” value on P-gp 170 [2] is “less favorable activity against P-gp 170 activity than compound 3”.

Take `O=c1cc(-c2ccccc2)oc2c(Br)c(O)c(O)c(O)c12` [Compound 25, 8-Bromo-5,6,7-trihydroxyflavone]: in series [3], the EC50 at 60 min came to 15 µM. For the same compound, the “anti-P-gp 170 efflux activity” value at P-gp 170 [2] is “Amax did not change”.

For `CCOc1c(O)cc2oc(-c3ccccc3)cc(=O)c2c1O` [Compound 32, 6-Ethoxy-5,7-dihydroxyflavone], the response on P-gp 170 [2] was half-maximal at 2.3 µM (EC50). This lies in the single-digit micromolar range.

The compound `CCOc1cc2oc(-c3ccccc3)cc(=O)c2c(O)c1OCC` [Compound 33, 6,7-Diethoxy-5-hydroxyflavone] had a concentration giving a half-maximal response (EC50) at P-gp 170 [2] of 1.8 µM.

Regarding `CCOc1c(OC)cc2oc(-c3ccccc3)cc(=O)c2c1O` [Compound 38, 6-Ethoxy-5-hydroxy-7-methoxyflavone], the melting point was in the range of 133 to 134 °C.

Compound `CCCCOc1cc2oc(-c3ccccc3)cc(=O)c2c(O)c1OCCCC` [Compound 45, 6,7-Dibutoxy-5-hydroxyflavone] showed a melting point of 116 to 117 °C.

For `CCCCOc1cc2oc(-c3ccccc3)cc(=O)c2c(OC)c1OCCCC` [Compound 46, 6,7-Dibutoxy-5-methoxyflavone], the melting point is 103 to 105 °C.

Regarding `COc1c(O)cc(O)c2c(=O)cc(-c3ccccc3)oc12` [wogonin, 5,7-dihydroxy-8-methoxyflavone], at P-gp 170 [1], the “anti-P-gp 170 activity in words” value is “lack inhibitory activity”.

For the compound `COc1c(O[C@@H]2O[C@H](C(=O)O)[C@@H](O)[C@H](O)[C@H]2O)cc(O)c2c(=O)cc(-c3ccccc3)oc12` [wogonoside], on P-gp 170 [4], the “anti-P-gp 170 activity in words” value was “lack inhibitory activity”.

The values above are taken from patent publication US7875650B2, “Compounds and methods to increase anti-P-glycoprotein activity of baicalein by alkylation on the A ring” (Yale University, priority 2004, dated 2011).
